Measurements: PubChem BioAssay AID2060511 (Molecular Pharmacology Branch, DTP, NCI, 2025)

Tested on: 422866-222-R5-J1-PDC spheroids with HUVEC/MSC, viability
Experiment: Anticancer human tumor 422866-222-R5-J1-PDC patient-derived pancreatic adenocarcinoma cell line growth inhibition [GQUAD]
Conditions: for IC50: curve of first compound; for viability, T/C: stronger effect = lower value
Outline: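 Multi-cell-type spheroids of tumor cells with HUVEC and mesenchymal stem cells, treated with drug combinations. Concentrations descend in half-log steps from near clinical Cmax, or from 10 microM where Cmax is unknown; viability read-out.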
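Also: spheroids exposed to compounds for seven days before reading.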
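For viability, T/C in this document: percent viability relative to DMSO vehicle control taken as 100%.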

Compound CC(C)n1c(=O)n(C)c2cnc3cc(F)c(-c4ccc(OCCCN5CCCCC5)nc4)cc3c21 + CN(C)c1ccc(Nc2c3ccc(NC(=O)CCN4CCCC4)cc3nc3cc(NC(=O)CCN4CCCC4)ccc23)cc1 has an IC50 (second compound 0.0316 µM) greater than 10 µM, an IC50 (second compound 0.1 µM) greater than 10 µM and an IC50 (second compound 0.316 µM) greater than 10 µM. For the same compound, the IC50 (second compound 1 µM) was greater than 10 µM, the IC50 (second compound 3.16 µM) was greater than 10 µM and the IC50 (second compound 10 µM) was greater than 10 µM. For the same compound, the viability, T/C (second compound 0.0316 µM, first compound 0.0316 µM) was 99.8%, the viability, T/C (second compound 0.0316 µM, first compound 0.1 µM) was 99% and the viability, T/C (second compound 0.0316 µM, first compound 0.316 µM) was 93.5%. It also gave a viability, T/C (second compound 0.0316 µM, first compound 1 µM) of 96%, a viability, T/C (second compound 0.0316 µM, first compound 3.16 µM) of 103% and a viability, T/C (second compound 0.0316 µM, first compound 10 µM) of 67.1%. The viability, T/C (second compound 0.1 µM, first compound 0.0316 µM) was 100%, the viability, T/C (second compound 0.1 µM, first compound 0.1 µM) was 78.5% and the viability, T/C (second compound 0.1 µM, first compound 0.316 µM) was 101%. For the same compound, the viability, T/C (second compound 0.1 µM, first compound 1 µM) was 90.5%, the viability, T/C (second compound 0.1 µM, first compound 3.16 µM) was 90.7% and the viability, T/C (second compound 0.1 µM, first compound 10 µM) was 70%. It also gave a viability, T/C (second compound 0.316 µM, first compound 0.0316 µM) of 103%, a viability, T/C (second compound 0.316 µM, first compound 0.1 µM) of 95.4% and a viability, T/C (second compound 0.316 µM, first compound 0.316 µM) of 92.4%. The viability, T/C (second compound 0.316 µM, first compound 1 µM) was 81.2%, the viability, T/C (second compound 0.316 µM, first compound 3.16 µM) was 88.8% and the viability, T/C (second compound 0.316 µM, first compound 10 µM) was 70.2%. The viability, T/C (second compound 1 µM, first compound 0.0316 µM) was 87.2%, the viability, T/C (second compound 1 µM, first compound 0.1 µM) was 92.5% and the viability, T/C (second compound 1 µM, first compound 0.316 µM) was 87.9%. It also gave a viability, T/C (second compound 1 µM, first compound 1 µM) of 98.6%, a viability, T/C (second compound 1 µM, first compound 3.16 µM) of 83.8% and a viability, T/C (second compound 1 µM, first compound 10 µM) of 55.1%. It also gave a viability, T/C (second compound 3.16 µM, first compound 0.0316 µM) of 82.8%, a viability, T/C (second compound 3.16 µM, first compound 0.1 µM) of 80.1% and a viability, T/C (second compound 3.16 µM, first compound 0.316 µM) of 86.8%. It also gave a viability, T/C (second compound 3.16 µM, first compound 1 µM) of 88.9%, a viability, T/C (second compound 3.16 µM, first compound 3.16 µM) of 81.6% and a viability, T/C (second compound 3.16 µM, first compound 10 µM) of 61.6%. For the same compound, the viability, T/C (second compound 10 µM, first compound 0.0316 µM) was 73.8%, the viability, T/C (second compound 10 µM, first compound 0.1 µM) was 80.9% and the viability, T/C (second compound 10 µM, first compound 0.316 µM) was 80.4%. It also gave a viability, T/C (second compound 10 µM, first compound 1 µM) of 64.3%, a viability, T/C (second compound 10 µM, first compound 3.16 µM) of 68.5% and a viability, T/C (second compound 10 µM, first compound 10 µM) of 51.7%.
